Laboratory results as given in US20150105252A1, “SUBSTITUTED PYRAZOLES AS HERBICIDES” (E I DU PONT DE NEMOURS AND COMPANY, priority 2013, published 2015).

Assays:
barnyardgrass [1] = experiment: Test A preemergence; type: in vivo, Echinochloa crus-galli; settings: preemergence; for Barnyardgrass plant response rating (0 to 100 scale, 0 is no effect, 100 is complete control): 125 g ai/ha, visual injury approx. 10 days after treatment; for Barnyardgrass plant response rating: 500 g ai/ha, visual injury after approx. 10 days, 0 to 100 scale (0 no effect, 100 complete control)
How it was run: (§1)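 Scoring was visual, on a scale where 100 means complete control and 0 means no effect, comparing treated with untreated plants around 10 days post-application. Compounds in surfactant-containing non-phytotoxic solvent were sprayed onto soil preemergence or onto one- to two-leaf seedlings (2–10 cm) postemergence.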

wheat [2] = experiment: Test A preemergence; type: in vivo, Triticum aestivum; settings: preemergence; for Wheat plant response rating (0 to 100 scale): 125 g ai/ha, visual injury approx. 10 days after treatment; for Wheat plant response rating: 500 g ai/ha, visual injury after approx. 10 days, 0 to 100 scale (0 no effect, 100 complete control)
How it was run: as §1

pigweed [3] = experiment: Test A postemergence; type: in vivo, Amaranthus retroflexus; settings: Postemergence
How it was run: as §1

pigweed [4] = experiment: Test A preemergence; type: in vivo, Amaranthus retroflexus; settings: preemergence; for Pigweed plant response rating (0 to 100 scale): 125 g ai/ha, visual injury approx. 10 days after treatment; for Pigweed plant response rating: 500 g ai/ha, visual injury after approx. 10 days, 0 to 100 scale (0 no effect, 100 complete control)
How it was run: as §1

rice = experiment: Test B flood; type: in vivo, Oryza sativa; settings: 250 g ai/ha, visual rating on 0 to 100 scale (0 no effect, 100 complete control), 13 to 15 days
How it was run: (§2)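 2-leaf plants; pots flooded 3 cm over soil; compound added to paddy water, depth kept constant. Greenhouse 13–15 d. Visual rating vs controls, 0–100 scale (100 = complete control); dash = no result.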

corn [5] = experiment: Test A postemergence; type: in vivo, Zea mays
How it was run: as §1

barnyardgrass [6] = experiment: Test B flood; type: in vivo, Echinochloa crus-galli; settings: 250 g ai/ha, visual rating on 0 to 100 scale (0 no effect, 100 complete control), 13 to 15 days
How it was run: as §2

foxtail, giant [7] = experiment: Test A postemergence; type: in vivo, Setaria faberii
How it was run: as §1

barnyardgrass [8] = experiment: Test A postemergence; type: in vivo, Echinochloa crus-galli
How it was run: as §1

wheat [9] = experiment: Test A postemergence; type: in vivo, Triticum aestivum; settings: Postemergence
How it was run: as §1

corn [10] = experiment: Test A preemergence; type: in vivo, Zea mays; settings: preemergence; for Corn plant response rating (0 to 100 scale): 125 g ai/ha, visual injury approx. 10 days after treatment; for Corn plant response rating: 500 g ai/ha, visual injury after approx. 10 days, 0 to 100 scale (0 no effect, 100 complete control)
How it was run: as §1

foxtail, giant [11] = experiment: Test A preemergence; type: in vivo, Setaria faberii; settings: preemergence; for Foxtail, Giant plant response rating (0 to 100 scale): 125 g ai/ha, visual injury approx. 10 days after treatment; for Foxtail, Giant plant response rating: 500 g ai/ha, visual injury after approx. 10 days, 0 to 100 scale (0 no effect, 100 complete control)
How it was run: as §1

ducksalad = experiment: Test B flood; type: in vivo, Heteranthera limosa; settings: 250 g ai/ha, visual rating on 0 to 100 scale (0 no effect, 100 complete control), 13 to 15 days
How it was run: as §2

morningglory [12] = experiment: Test A postemergence; type: in vivo, Ipomoea spp.; settings: Postemergence
How it was run: as §1

sedge, umbrella = experiment: Test B flood; type: in vivo, Cyperus difformis; settings: 250 g ai/ha, visual rating on 0 to 100 scale (0 no effect, 100 complete control), 13 to 15 days
How it was run: as §2

crabgrass, large [13] = experiment: Test A preemergence; type: in vivo, Digitaria sanguinalis; settings: preemergence; for Crabgrass, Large plant response rating (0 to 100 scale): 125 g ai/ha, visual injury approx. 10 days after treatment; for Crabgrass, Large plant response rating: 500 g ai/ha, visual injury after approx. 10 days, 0 to 100 scale (0 no effect, 100 complete control)
How it was run: as §1

velvetleaf [14] = experiment: Test A postemergence; type: in vivo, Abutilon theophrasti; settings: Postemergence
How it was run: as §1

crabgrass, large [15] = experiment: Test A postemergence; type: in vivo, Digitaria sanguinalis
How it was run: as §1

morningglory [16] = experiment: Test A preemergence; type: in vivo, Ipomoea spp.; settings: preemergence; for Morningglory plant response rating (0 to 100 scale): 125 g ai/ha, visual injury approx. 10 days after treatment; for Morningglory plant response rating: 500 g ai/ha, visual injury after approx. 10 days, 0 to 100 scale (0 no effect, 100 complete control)
How it was run: as §1

velvetleaf [17] = experiment: Test A preemergence; type: in vivo, Abutilon theophrasti; settings: preemergence; for Velvetleaf plant response rating (0 to 100 scale): 125 g ai/ha, visual injury approx. 10 days after treatment; for Velvetleaf plant response rating: 500 g ai/ha, visual injury after approx. 10 days, 0 to 100 scale (0 no effect, 100 complete control)
How it was run: as §1

[18] = 500 g ai/ha, 0 to 100 scale (0 no effect, 100 complete control)
[19] = Postemergence, 500 g ai/ha, 0 to 100 scale (0 no effect, 100 complete control)
[20] = postemergence, 125 g ai/ha, about 10 days, visual rating on 0 to 100 scale (0 no effect, 100 complete control)
[21] = 125 g ai/ha, 0 to 100 scale, 0 no effect, 100 complete control

Structure (SMILES)	Barnyardgrass plant response rating (0 to 100 scale, 0 is no effect, 100 is complete control) (barnyardgrass [1])	Barnyardgrass plant response rating (barnyardgrass [1])	Wheat plant response rating (0 to 100 scale) (wheat [2])	Wheat plant response rating (wheat [2])	Pigweed plant response rating (pigweed [3]; [18])	Pigweed plant response rating (0 to 100 scale) (pigweed [4])	Pigweed plant response rating (pigweed [4])	Plant response rating, Rice (rice)	Corn plant response rating (corn [5]; [19])	Corn plant response rating (corn [5]; [20])	Plant response rating, Barnyardgrass (barnyardgrass [6])	Foxtail, Giant plant response rating (foxtail, giant [7]; [19])	Foxtail, Giant plant response rating (foxtail, giant [7]; [20])	Barnyardgrass plant response rating (barnyardgrass [8]; [19])	Barnyardgrass plant response rating (barnyardgrass [8]; [20])	Wheat plant response rating (wheat [9]; [18])	Corn plant response rating (0 to 100 scale) (corn [10])	Corn plant response rating (corn [10])	Foxtail, Giant plant response rating (0 to 100 scale) (foxtail, giant [11])	Foxtail, Giant plant response rating (foxtail, giant [11])	also measured
O=C(NCC(F)(F)F)c1cc(I)n(Cc2cccc(C(F)(F)F)c2)n1 [Compound 181]	0	10	0	0	100	10	50	20	20	0	0	10	0	10	10	0	0	0	0	20	Plant response rating, Ducksalad (ducksalad): 0; Morningglory plant response rating (morningglory [12]; [18]): 80; Plant response rating, Sedge, Umbrella (sedge, umbrella): 40; Crabgrass, Large plant response rating (0 to 100 scale) (crabgrass, large [13]): 10; Crabgrass, Large plant response rating (crabgrass, large [13]): 60; Velvetleaf plant response rating (velvetleaf [14]; [18]): 20; Crabgrass, Large plant response rating (crabgrass, large [15]; [19]): 10; Crabgrass, Large plant response rating (crabgrass, large [15]; [20]): 10; Morningglory plant response rating (0 to 100 scale) (morningglory [16]): 0; Morningglory plant response rating (morningglory [16]): 0; Velvetleaf plant response rating (0 to 100 scale) (velvetleaf [17]): 0; Velvetleaf plant response rating (velvetleaf [17]): 0
CCCNC(=O)c1cc(I)n(Cc2cccc(C(F)(F)F)c2)n1 [Compound 183]	0	10	0	0	80	10	50	0	10	0	0	20	10	20	10	0	0	0	10	50	Pigweed plant response rating (pigweed [3]; [21]): 90; Wheat plant response rating (wheat [9]; [21]): 0; Plant response rating, Ducksalad (ducksalad): 0; Morningglory plant response rating (morningglory [12]; [21]): 10; Morningglory plant response rating (morningglory [12]; [18]): 90; Plant response rating, Sedge, Umbrella (sedge, umbrella): 0; Crabgrass, Large plant response rating (0 to 100 scale) (crabgrass, large [13]): 10; Crabgrass, Large plant response rating (crabgrass, large [13]): 80; Velvetleaf plant response rating (velvetleaf [14]; [21]): 10; Velvetleaf plant response rating (velvetleaf [14]; [18]): 40; Crabgrass, Large plant response rating (crabgrass, large [15]; [19]): 20; Crabgrass, Large plant response rating (crabgrass, large [15]; [20]): 10; Morningglory plant response rating (0 to 100 scale) (morningglory [16]): 0; Morningglory plant response rating (morningglory [16]): 0; Velvetleaf plant response rating (0 to 100 scale) (velvetleaf [17]): 0; Velvetleaf plant response rating (velvetleaf [17]): 0
CCCCc1cc(C(=O)NCCC)nn1Cc1ccnc(C(F)(F)F)c1 [Compound 190]	0	60	0	0	90	100	100	0	40	10	0	60	20	60	10	10	0	0	20	90	Pigweed plant response rating (pigweed [3]; [21]): 100; Wheat plant response rating (wheat [9]; [21]): 80; Plant response rating, Ducksalad (ducksalad): 0; Morningglory plant response rating (morningglory [12]; [21]): 100; Morningglory plant response rating (morningglory [12]; [18]): 90; Plant response rating, Sedge, Umbrella (sedge, umbrella): 45; Crabgrass, Large plant response rating (0 to 100 scale) (crabgrass, large [13]): 80; Crabgrass, Large plant response rating (crabgrass, large [13]): 100; Velvetleaf plant response rating (velvetleaf [14]; [21]): 100; Velvetleaf plant response rating (velvetleaf [14]; [18]): 80; Crabgrass, Large plant response rating (crabgrass, large [15]; [19]): 70; Crabgrass, Large plant response rating (crabgrass, large [15]; [20]): 20; Morningglory plant response rating (0 to 100 scale) (morningglory [16]): 0; Morningglory plant response rating (morningglory [16]): 30; Velvetleaf plant response rating (0 to 100 scale) (velvetleaf [17]): 0; Velvetleaf plant response rating (velvetleaf [17]): 20
CCCNC(=O)c1cc(C)n(Cc2ccnc(C(F)(F)F)c2)n1 [Compound 191]	20	100	0	70	100	100	100	0	100	60	0	90	80	100	70	60	10	60	100	100	Pigweed plant response rating (pigweed [3]; [21]): 100; Wheat plant response rating (wheat [9]; [21]): 80; Plant response rating, Ducksalad (ducksalad): 80; Morningglory plant response rating (morningglory [12]; [21]): 90; Morningglory plant response rating (morningglory [12]; [18]): 90; Plant response rating, Sedge, Umbrella (sedge, umbrella): 55; Crabgrass, Large plant response rating (0 to 100 scale) (crabgrass, large [13]): 100; Crabgrass, Large plant response rating (crabgrass, large [13]): 100; Velvetleaf plant response rating (velvetleaf [14]; [21]): 90; Velvetleaf plant response rating (velvetleaf [14]; [18]): 100; Crabgrass, Large plant response rating (crabgrass, large [15]; [19]): 90; Crabgrass, Large plant response rating (crabgrass, large [15]; [20]): 80; Morningglory plant response rating (0 to 100 scale) (morningglory [16]): 90; Morningglory plant response rating (morningglory [16]): 100; Velvetleaf plant response rating (0 to 100 scale) (velvetleaf [17]): 10; Velvetleaf plant response rating (velvetleaf [17]): 100
